# Measured values published in patent publication US7160880B1, “Short-acting benzodiazepines” (CeNeS Limited, priority 1999, dated 2007).
# Like-named read-outs stand apart in the source and are kept apart here.
# Legend:
# [1] = tested on: male Wistar rats; assay: Loss of the righting reflex (LRR) in rats; type: in vivo, rat; conditions: i.v. via tail vein, dose in the range of 10–100 mg/kg
# Protocol: The intrinsic efficacy of a compound was assessed by its ability to cause loss of the righting reflex (LRR) in rats, an effect associated with benzodiazepine full agonism.
# Method: Subjects for these studies were male Wistar rats, weighing approximately 250–350 grams. To assess loss of righting reflex (LRR), animals were placed in plastic restrainers and test compounds were administered i.v. via the tail vain. Subjects were immediately removed from the restrainer and the time to onset of loss of righting reflex was recorded. LRR was defined as the loss of an animal's ability to right itself when placed in a supine position. […] Compounds producing LRR were evaluated by three measures: 1) Time to onset of LRR (as described above) 2) Time to recover from LRR. An animal met this criteria when able to right itself three consecutive times after losing its righting reflex 3) Total recovery time. Total recovery was measured by the animal's ability to walk without ataxia as well as its ability to pull itself up three consecutive times when suspended from a horizontal wire. […] The therapeutically useful dosage range for administration to mammals is 0.01 to 5.0 mg/kg of body weight.
# [2] = biological target: benzodiazepine receptor (benzodiazepine site on the GABAA receptor complex); assay: Benzodiazepine radioligand (3H-flunitrazepam) binding assay
# [3] = read-out: Benzodiazepine receptor binding Ki, 3H-flunitrazepam, brain membrane homogenates, 90 minutes at 4° C., tissue species of the tabulated values not stated
SMILES,loss of righting reflex (LRR) [1],"Ki [2, 3] [nM]",Ki ([2]; compound used at 10 μM to define nonspecific binding) [nM]
COC(=O)CC[C@@H]1N=C(c2ccccc2F)c2cc(Cl)ccc2-n2c1cnc2C (racemic) [Example 1c-18],producing loss-of-righting,1 to 50,
"CN1C(=O)CN=C(c2ccccc2Cl)c2cc(Cl)ccc21 [2′-chlorodiazepam, reference compound]",,,0.5
"COC(=O)CC[C@@H]1N=C(c2ccccc2F)c2cc(Cl)ccc2NC1=O [Example 1-1, Methyl 3-[(3S)-7-chloro-5-(2-fluorophenyl)-2-oxo-2,3-dihydro-1H-1,4-benzodiazepin-3-yl]propanoate]",producing loss-of-righting,1 to 50,
COC(=O)CC[C@@H]1N=C(c2ccccc2F)c2cc(Cl)ccc2NC1=O [Example 1-2],,51 to 100,
COC(=O)CC[C@@H]1N=C(c2ccccc2F)c2cc(Br)ccc2NC1=O [Example 1-3],producing loss-of-righting,1 to 50,
COC(=O)CC[C@H]1N=C(c2ccccc2F)c2cc(Cl)ccc2NC1=O [Example 1-4],producing loss-of-righting,101 to 1000,
O=C(CC[C@@H]1N=C(c2ccccc2F)c2cc(Cl)ccc2NC1=O)OCc1ccccc1 [Example 1-5],producing loss-of-righting,1 to 50,
O=C(CC[C@@H]1N=C(c2ccccc2F)c2cc(Cl)ccc2NC1=O)OCc1ccccc1 [Example 1-6],producing loss-of-righting,101 to 1000,
COC(=O)CC[C@@H]1N=C(c2ccccc2Cl)c2cc(Cl)ccc2NC1=O [Example 1-7],producing loss-of-righting,1 to 50,
COC(=O)CCC[C@@H]1N=C(c2ccccc2F)c2cc(Cl)ccc2NC1=O [Example 1-8],,1 to 50,
O=C(CC[C@@H]1N=C(c2ccccn2)c2cc(Cl)ccc2NC1=O)OCc1ccccc1 [Example 1-9],producing loss-of-righting,101 to 1000,
COC(=O)CC[C@@H]1N=C(c2ccccn2)c2cc(Br)ccc2NC1=O [Example 1-10],,51 to 100,
COC(=O)CC[C@@H]1N=C(c2ccccn2)c2cc(Cl)ccc2NC1=O [Example 1-11],producing loss-of-righting,101 to 1000,
COC(=O)CCC[C@@H]1N=C(c2ccccc2F)c2cc([N+](=O)[O-])ccc2NC1=O [Example 1-13],,1 to 50,
CCCOC(=O)CC[C@@H]1N=C(c2ccccn2)c2cc(Cl)ccc2NC1=O [Example 1-14],,101 to 1000,
CCOC(=O)CC[C@@H]1N=C(c2ccccn2)c2cc(Cl)ccc2NC1=O [Example 1-15],,101 to 1000,
CCCCOC(=O)CC[C@@H]1N=C(c2ccccc2F)c2cc(Cl)ccc2NC1=O [Example 1-17],producing loss-of-righting,101 to 1000,
CCCCOC(=O)CC[C@@H]1N=C(c2ccccn2)c2cc(Cl)ccc2NC1=O [Example 1-18],,101 to 1000,
CC(C)COC(=O)CC[C@@H]1N=C(c2ccccn2)c2cc(Cl)ccc2NC1=O [Example 1-19],,101 to 1000,
CCOC(=O)C[C@@H]1N=C(c2ccccc2F)c2cc(Cl)ccc2NC1=O [Example 1-20],,1 to 50,
CC(C)OC(=O)CC[C@@H]1N=C(c2ccccc2F)c2cc(Cl)ccc2NC1=O [Example 1-21],,1 to 50,
CCN(CC)CCN1C(=O)[C@H](CCC(=O)OC)N=C(c2ccccc2F)c2cc(Cl)ccc21 [Example 1-22],,101 to 1000,
COC(=O)CC[C@@H]1N=C(c2ccccc2F)c2cc(Cl)ccc2N(C)C1=O [Example 1-23],producing loss-of-righting,1 to 50,
CN1C(=O)[C@H](CC(=O)OCc2ccccc2)N=C(c2ccccc2F)c2cc(Cl)ccc21 [Example 1-24],,51 to 100,
CCN(CC)CCN1C(=O)[C@H](CCC(=O)OCc2ccccc2)N=C(c2ccccc2F)c2cc(Cl)ccc21 [Example 1-25],,51 to 100,
COC(=O)CNC1N=C(c2ccccc2Cl)c2cc(Cl)ccc2NC1=O (stereo not drawn) [Example 1-26],,51 to 100,
COC(=O)CCNC1N=C(c2ccccc2Cl)c2cc(Cl)ccc2NC1=O (stereo not drawn) [Example 1-27],,1 to 50,
COC(=O)CC[C@H]1C(=O)Nc2ccc(Cl)cc2C(c2ccccc2F)=[N+]1[O-] [Example 1-31],,51 to 100,

SMILES,loss of righting reflex (LRR) [1],"Ki [2, 3] [nM]",Ki ([2]; compound used at 10 μM to define nonspecific binding) [nM]
CNC1=Nc2ccc(Cl)cc2C(c2ccccc2F)=N[C@H]1CCC(=O)OC [Example 1b-1],producing loss-of-righting,51 to 100,
CCNC1=Nc2ccc(Cl)cc2C(c2ccccc2F)=N[C@H]1CCC(=O)OC [Example 1b-3],,101 to 1000,
COC(=O)CC[C@@H]1N=C(c2ccccc2F)c2cc(Cl)ccc2N=C1NCc1ccccc1 [Example 1b-4],,101 to 1000,
COC(=O)CC[C@@H]1N=C(c2ccccc2F)c2cc(Cl)ccc2N=C1NCc1ccncc1 [Example 1b-5],,> 1000,
COC(=O)CC[C@@H]1N=C(c2ccccc2F)c2cc(Cl)ccc2N=C1NCCc1ccncc1 [Example 1b-6],,101 to 1000,
COC(=O)CC[C@@H]1N=C(c2ccccc2F)c2cc(Cl)ccc2N=C1NCC(C)C [Example 1b-7],,> 1000,
COC(=O)CC[C@@H]1N=C(c2ccccc2F)c2cc(Cl)ccc2N=C1NCCc1c[nH]cn1 [Example 1b-8],,101 to 1000,
COC(=O)CC[C@@H]1N=C(c2ccccc2F)c2cc(Cl)ccc2N=C1NCCO [Example 1b-9],,101 to 1000,
CNC1=Nc2ccc(Br)cc2C(c2ccccc2F)=N[C@H]1CCC(=O)OC [Example 1b-10],producing loss-of-righting,1 to 50,
COC(=O)CC[C@@H]1N=C(c2ccccc2F)c2cc(Cl)ccc2-n2ccnc21 [Example 1c-1],producing loss-of-righting,1 to 50,
COC(=O)CC[C@@H]1N=C(c2ccccc2F)c2cc(Cl)ccc2-n2c(C)cnc21 [Example 1c-2],producing loss-of-righting,1 to 50,
COC(=O)CC[C@@H]1N=C(c2ccccc2F)c2cc(Cl)ccc2-n2cc(C)nc21 [Example 1c-3],producing loss-of-righting,1 to 50,
COC(=O)CC[C@@H]1N=C(c2ccccc2F)c2cc(Cl)ccc2-n2cc(CO)nc21 [Example 1c-4],,1 to 50,
COC(=O)CC[C@@H]1N=C(c2ccccc2F)c2cc(Cl)ccc2-n2c(CO)cnc21 [Example 1c-5],,1 to 50,
COC(=O)CC[C@@H]1N=C(c2ccccn2)c2cc(Cl)ccc2-n2ccnc21 [Example 1c-6],producing loss-of-righting,51 to 100,
COC(=O)CC[C@@H]1N=C(c2ccccn2)c2cc(Cl)ccc2-n2c(C)cnc21 [Example 1c-7],producing loss-of-righting,51 to 100,
"COC(=O)CC[C@@H]1N=C(c2ccccn2)c2cc(Br)ccc2-n2c(C)cnc21 [Example 1c-8, Methyl 3-[(4S)-8-bromo-1-methyl-6-(2-pyridinyl)-4H-imidazo[1,2-a][1,4]benzodiazepin-4-yl]propanoate]",producing loss-of-righting,1 to 50,
COC(=O)CC[C@@H]1N=C(c2ccccn2)c2cc(Br)ccc2-n2cc(C)nc21 [Example 1c-9],,1 to 50,
COC(=O)CC[C@@H]1N=C(c2ccccn2)c2cc(Cl)ccc2-n2cc(C)nc21 [Example 1c-10],producing loss-of-righting,51 to 100,
COC(=O)CC[C@@H]1N=C(c2ccccn2)c2cc(Cl)ccc2-n2cc(CO)nc21 [Example 1c-11],,101 to 1000,
COC(=O)CC[C@@H]1N=C(c2ccccn2)c2cc(Cl)ccc2-n2c(CO)cnc21 [Example 1c-12],,101 to 1000,
COC(=O)CC[C@@H]1N=C(c2ccccn2)c2cc(Cl)ccc2-n2c1nc(C)c2C [Example 1c-13],,101 to 1000,
COC(=O)CC[C@@H]1N=C(c2ccccc2Cl)c2cc(Cl)ccc2-n2c(C)nnc21 [Example 1c-14],producing loss-of-righting,1 to 50,
COC(=O)CC[C@@H]1N=C(c2ccccc2F)c2cc(Cl)ccc2-n2c(C)nnc21 [Example 1c-15],producing loss-of-righting,1 to 50,
Cc1nnc2n1-c1ccc(Cl)cc1C(c1ccccc1F)=N[C@H]2CCC(=O)OCC(C)C [Example 1c-16],,1 to 50,
COC(=O)CC[C@@H]1N=C(c2ccccc2F)c2cc(Cl)ccc2-n2cncc21 [Example 1c-17],producing loss-of-righting,101 to 1000,
COC(=O)CC[C@@H]1N=C(c2ccccc2F)c2cc(Cl)ccc2-n2cc(COC(C)(C)C)nc21 [Example 1c-19],,1 to 50,
